Source: article PMC9454393 (Scientific Reports, 2022)
“Also recorded” adds a separate entry of the source. Like-named read-outs stand apart in the source and are kept apart here.

Columns and labels:
BuChE = conditions: read-out: IC50 against BuChE, cited from earlier work
AChE [1] = target: T1, AChE (Homo sapiens, UniProt P22303); conditions: cited from earlier work; for IC50: read-out: IC50 against AChE
AChE [2] = target: T1, AChE; experiment: biochemical; conditions: mean ± SD
Method: (§1) A previously described modified protocol of Ellman's spectrophotometric assay in clear flat-bottomed, 96-well plates, was used. […] The absorbance of each well was measured at 415 nm using a microplate reader. […]

BChE = BChE (Homo sapiens, UniProt P06276); experiment: BChE inhibition, modified Ellman's spectrophotometric assay; format: biochemical
Chain of BChE (P06276 29-602): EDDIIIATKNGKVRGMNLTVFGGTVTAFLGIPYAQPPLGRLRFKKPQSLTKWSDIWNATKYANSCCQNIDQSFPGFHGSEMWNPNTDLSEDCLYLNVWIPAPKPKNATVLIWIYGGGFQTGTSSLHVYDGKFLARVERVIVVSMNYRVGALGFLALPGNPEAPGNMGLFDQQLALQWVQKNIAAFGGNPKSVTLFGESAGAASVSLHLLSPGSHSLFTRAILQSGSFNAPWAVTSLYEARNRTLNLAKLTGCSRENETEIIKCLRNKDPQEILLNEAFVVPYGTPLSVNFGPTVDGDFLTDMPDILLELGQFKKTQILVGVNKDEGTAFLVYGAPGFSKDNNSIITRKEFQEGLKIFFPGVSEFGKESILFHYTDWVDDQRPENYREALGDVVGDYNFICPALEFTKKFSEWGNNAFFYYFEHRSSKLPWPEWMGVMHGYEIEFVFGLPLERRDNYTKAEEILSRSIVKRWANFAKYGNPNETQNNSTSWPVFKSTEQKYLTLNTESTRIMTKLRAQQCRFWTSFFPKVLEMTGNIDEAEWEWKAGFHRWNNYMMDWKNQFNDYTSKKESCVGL
Method: as §1

AChE [3] = target: T1, AChE; experiment: Kinetic study of AChE inhibition (Lineweaver-Burk plots, Ellman's method); format: biochemical
Method: The kinetic study of AChE was carried out at five different concentrations (0–8 µM) of compound 4ad by Ellman's method. […]. The inhibition constant Ki was calculated by the plot of slopes versus the corresponding concentrations of the 4ad.

[4] = Fig. 2 traditional AChE inhibitors

T1 sequence (P22303 32-614): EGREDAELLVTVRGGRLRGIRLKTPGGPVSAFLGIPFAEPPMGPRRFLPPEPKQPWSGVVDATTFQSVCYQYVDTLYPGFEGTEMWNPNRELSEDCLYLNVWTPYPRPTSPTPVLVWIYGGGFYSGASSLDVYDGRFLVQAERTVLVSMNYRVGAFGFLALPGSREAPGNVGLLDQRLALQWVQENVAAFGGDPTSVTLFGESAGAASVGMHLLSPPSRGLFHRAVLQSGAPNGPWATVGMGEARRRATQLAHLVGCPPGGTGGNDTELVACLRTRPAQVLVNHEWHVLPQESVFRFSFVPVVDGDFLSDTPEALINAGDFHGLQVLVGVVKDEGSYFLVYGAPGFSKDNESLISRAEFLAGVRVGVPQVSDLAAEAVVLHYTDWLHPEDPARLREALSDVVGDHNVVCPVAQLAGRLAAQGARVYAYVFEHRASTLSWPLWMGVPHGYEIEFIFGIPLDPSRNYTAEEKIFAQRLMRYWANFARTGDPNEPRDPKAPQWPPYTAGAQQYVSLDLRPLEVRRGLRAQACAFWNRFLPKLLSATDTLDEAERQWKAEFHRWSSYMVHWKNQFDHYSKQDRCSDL

Compound	IC50 (BuChE; [4]) [µM]	IC50 (AChE [1]; [4]) [µM]	IC50 (AChE [1]; Fig. 3) [µM]	other results
O=C1c2ccccc2C(=O)N1Cc1cc[n+](Cc2ccc(F)cc2)cc1 [B]	8.71	0.77		
c1ccc(C[n+]2ccc(-c3nc4ccccc4s3)cc2)cc1 [C]	0.182	0.014		
CSc1c([N+](=O)[O-])c(C(C#N)C(N)=O)c(-c2ccc(Cl)cc2)n1-c1ccc(O)cc1 (stereo not shown) [Compound 4ad, 2-(2-(4-chlorophenyl)-1-(4-hydroxyphenyl)-5-(methylthio)-4-nitro-1H-pyrrol-3-yl)-2-cyanoacetamide]				inhibition at 50 µM (AChE [2]; 50 µM compound, NA = not active): 89.8 ± 2.36%; IC50 (AChE [2]): 2.95 ± 1.31 µM; BChE inhibition (in words) (BChE): no significant inhibition; also recorded: inactive; inhibition at 50 µM (BChE; 50 µM compound, mean ± SD, NA = not active): 20 ± 1.33%; type of AChE inhibition (AChE [3]; Lineweaver-Burk plots, Km and Vmax reduced with increasing inhibitor concentration): uncompetitive; Ki (AChE [3]; estimated from plot of Km versus concentrations of 4ad (0-8 µM), substrate acetylthiocholine 0.1-1 mM, read-out: inhibition constant, Ki): 2.84 µM
O=C(NC1CCN(Cc2ccccc2)CC1)c1cc(-c2cccc([N+](=O)[O-])c2)on1 [F]	15.2	16.1		
CN1CCC2COc3ccccc3C21 (stereo not shown) [H]			7.75	IC50 (BuChE; Fig. 3): 7.23 µM
CCOC(=O)c1[nH]c(-c2ccccc2)cc1-c1ccccc1 [I]			128	Ki (AChE [1]; Fig. 3, read-out: Ki against AChE): 104 ± 15.4 µM
